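1) Cells in 96-well plates. 2) Compound, 48 h, 5 concentrations. 3) Linear interpolation between surrounding doses. 4) Unreached endpoint = highest concentration. GI50 is the concentration that inhibits growth by half.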 Activity calls are given as the source filed them. Cut-off read from the data, not from the text of the source: active = GI50 up to about 1.1 µM and inactive = higher.
Experiments:
Experiment in all cases: growth of human tumour cells (NCI), 48 h
[1] = test system: A498
[2] = test system: A549
[3] = test system: CAKI-1
[4] = test system: EKVX
[5] = test system: HCT-15
[6] = test system: M14
[7] = test system: MOLT-4
[8] = test system: NCI-H226
[9] = test system: NCI-H23
[10] = test system: OVCAR-3
[11] = test system: OVCAR-8
[12] = test system: RPMI-8226
[13] = test system: SF-295
[14] = test system: SK-MEL-5
[15] = test system: TK-10
[16] = test system: UO-31
[17] = test system: SK-MEL-28

In the case of `C/C(CN1C(=O)c2ccccc2C1=O)=N\NS(=O)(=O)c1ccc(Cl)cc1`, the GI50 [1] is reported as > 100 µM (inactive), the GI50 [2] is reported as > 100 µM (inactive) and the GI50 [3] is reported as > 100 µM (inactive). For the same compound, the GI50 [4] was > 100 µM (inactive), the GI50 [5] was > 100 µM and the GI50 [6] was > 100 µM (inactive). The GI50 [7] was > 100 µM (inactive), the GI50 [8] was > 100 µM (inactive) and the GI50 [9] was > 100 µM (inactive). The GI50 [10] was > 100 µM (inactive), the GI50 [11] was > 100 µM (inactive) and the GI50 [12] was > 100 µM (inactive). The GI50 [13] was > 100 µM (inactive), the GI50 [14] was > 100 µM (inactive) and the GI50 [15] was > 100 µM (inactive). The GI50 [16] was > 100 µM (inactive).

With `CC(=O)C1C(=O)C(=O)N(CCN2C(=O)C(=O)C(C(C)=O)C2=O)C1=O` (configuration not stated) the GI50 [1] was > 100 µM (inactive), the GI50 [3] was > 100 µM (inactive) and the GI50 [4] was > 100 µM (inactive). The GI50 [5] was > 100 µM, the GI50 [6] was > 100 µM (inactive) and the GI50 [8] was > 100 µM (inactive). The GI50 [9] was > 100 µM (inactive), the GI50 [10] was > 100 µM (inactive) and the GI50 [11] was > 100 µM (inactive). For the same compound, the GI50 [12] was > 100 µM (inactive), the GI50 [13] was > 100 µM (inactive) and the GI50 [17] was > 100 µM (inactive). For the same compound, the GI50 [14] was > 100 µM (inactive), the GI50 [15] was > 100 µM (inactive) and the GI50 [16] was > 100 µM (inactive).

With `O=C1[C@H]2ON(c3ccccc3)C(c3ccccc3)[C@H]2C(=O)N1c1ccc(Cc2ccc(N3C(=O)[C@@H]4ON(c5ccccc5)C(c5ccccc5)[C@@H]4C3=O)cc2)cc1` (some centres not stated) the GI50 [1] was > 100 µM (inactive), the GI50 [2] was > 100 µM (inactive) and the GI50 [3] was > 100 µM (inactive). For the same compound, the GI50 [5] was > 100 µM, the GI50 [6] was > 100 µM (inactive) and the GI50 [7] was > 100 µM (inactive). The GI50 [8] was > 100 µM (inactive), the GI50 [9] was > 100 µM (inactive) and the GI50 [10] was > 100 µM (inactive). For the same compound, the GI50 [12] was > 100 µM (inactive), the GI50 [13] was > 100 µM (inactive) and the GI50 [17] was > 100 µM (inactive). The GI50 [14] was > 100 µM (inactive) and the GI50 [16] was > 100 µM (inactive).

With `COc1cccc(N2C(=O)[C@H]3[C@H]4CC(C(C)(C)C)CC[C@H]4c4c([nH]c5ccccc45)[C@H]3C2=O)c1` (some centres not stated) the GI50 [2] was 15.3 µM (inactive), the GI50 [3] was 17.2 µM (inactive) and the GI50 [4] was 20 µM (inactive). For the same compound, the GI50 [5] was 34.6 µM, the GI50 [6] was 15.1 µM (inactive) and the GI50 [7] was 11.9 µM (inactive). For the same compound, the GI50 [8] was 22.1 µM (inactive), the GI50 [9] was 19.2 µM (inactive) and the GI50 [10] was 15.7 µM (inactive). For the same compound, the GI50 [11] was 14.9 µM (inactive), the GI50 [12] was 15.4 µM (inactive) and the GI50 [13] was 15.1 µM (inactive). For the same compound, the GI50 [17] was 18.7 µM (inactive), the GI50 [14] was 18 µM (inactive) and the GI50 [15] was 15.2 µM (inactive). For the same compound, the GI50 [16] was 17.6 µM (inactive).

In the case of `FC(F)(F)c1nc2ccc3[nH]c4c(-c5ccccc5)nccc4c3c2[nH]1`, the GI50 [1] is reported as > 100 µM (inactive), the GI50 [2] is reported as > 100 µM (inactive) and the GI50 [3] is reported as > 100 µM (inactive). The GI50 [4] was > 100 µM (inactive), the GI50 [5] was > 100 µM and the GI50 [6] was > 100 µM (inactive). The GI50 [7] was > 100 µM (inactive), the GI50 [8] was > 100 µM (inactive) and the GI50 [9] was > 100 µM (inactive). The GI50 [10] was > 100 µM (inactive), the GI50 [11] was > 100 µM (inactive) and the GI50 [12] was > 42.9 µM (inactive). The GI50 [13] was > 100 µM (inactive), the GI50 [17] was > 100 µM (inactive) and the GI50 [14] was > 100 µM (inactive). For the same compound, the GI50 [15] was > 100 µM (inactive) and the GI50 [16] was > 100 µM (inactive).

`CC(=O)OC12CCCCC1C1(CCCC1)NC2=O` (configuration not stated) was tested, and the GI50 [1] was > 100 µM (inactive), the GI50 [2] was > 100 µM (inactive) and the GI50 [4] was > 100 µM (inactive). For the same compound, the GI50 [5] was > 100 µM, the GI50 [6] was > 100 µM (inactive) and the GI50 [7] was > 100 µM (inactive). The GI50 [8] was > 100 µM (inactive), the GI50 [9] was > 100 µM (inactive) and the GI50 [10] was > 100 µM (inactive). The GI50 [11] was > 100 µM (inactive), the GI50 [12] was > 100 µM (inactive) and the GI50 [13] was > 100 µM (inactive). For the same compound, the GI50 [17] was > 100 µM (inactive), the GI50 [15] was > 100 µM (inactive) and the GI50 [16] was > 100 µM (inactive).

`Cc1nc2ccccc2c(=O)n1/N=C(\N=N\c1cc(Cl)ccc1Cl)c1cccc(-c2ccco2)c1` was tested, and the GI50 [1] was > 100 µM (inactive), the GI50 [2] was > 100 µM (inactive) and the GI50 [3] was > 100 µM (inactive). For the same compound, the GI50 [4] was > 100 µM (inactive), the GI50 [5] was 74.6 µM and the GI50 [6] was > 100 µM (inactive). The GI50 [7] was 35.3 µM (inactive), the GI50 [8] was > 100 µM (inactive) and the GI50 [9] was > 100 µM (inactive). The GI50 [10] was > 100 µM (inactive), the GI50 [11] was 95.9 µM (inactive) and the GI50 [12] was 42.8 µM (inactive). The GI50 [13] was > 100 µM (inactive), the GI50 [17] was > 100 µM (inactive) and the GI50 [14] was 96.4 µM (inactive). For the same compound, the GI50 [15] was > 100 µM (inactive) and the GI50 [16] was 37.7 µM (inactive).

For `O=S(=O)(N/N=C/c1ccc(Cl)c(Cl)c1)c1ccccc1`, the GI50 [1] was 26.1 µM (inactive), the GI50 [2] was 39.7 µM (inactive) and the GI50 [3] was 33.2 µM (inactive). For the same compound, the GI50 [4] was 64.9 µM (inactive), the GI50 [5] was 36.1 µM and the GI50 [6] was 60.3 µM (inactive). For the same compound, the GI50 [7] was 28.1 µM (inactive), the GI50 [8] was 58.5 µM (inactive) and the GI50 [9] was 36.3 µM (inactive). The GI50 [10] was 24.5 µM (inactive), the GI50 [11] was 25.7 µM (inactive) and the GI50 [12] was 47 µM (inactive). The GI50 [13] was 33.9 µM (inactive), the GI50 [17] was 72.3 µM (inactive) and the GI50 [14] was 54 µM (inactive). For the same compound, the GI50 [15] was 41.7 µM (inactive) and the GI50 [16] was 27 µM (inactive).
